Assay [1] concerns the target T1, Human Factor XIIa (Homo sapiens, UniProt P00748).
T1 construct: purchased Enzyme Research Laboratories
T1 sequence (P00748 373-615 limits assumed): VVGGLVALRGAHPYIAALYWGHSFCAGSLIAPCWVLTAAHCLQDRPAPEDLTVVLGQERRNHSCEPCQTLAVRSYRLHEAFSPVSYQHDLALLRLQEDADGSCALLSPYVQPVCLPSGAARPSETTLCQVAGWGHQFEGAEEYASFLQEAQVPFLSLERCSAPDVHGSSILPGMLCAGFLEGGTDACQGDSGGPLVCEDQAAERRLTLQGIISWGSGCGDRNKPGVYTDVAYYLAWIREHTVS
Nature of the assay: Factor XIIa inhibitory activity in vitro (fluorogenic substrate H-DPro-Phe-Arg-AFC). The note with it: 25° C., class symbols, read-out: Human FXIIa IC50. Type of assay: biochemical. In outline:
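Enzyme incubated at 25° C with fluorogenic substrate H-DPro-Phe-Arg-AFC and a range of compound concentrations. Residual activity taken as initial reaction rate from […], giving IC50.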

Assay [2] has as its target T2, Human FXIa (Homo sapiens, UniProt P03951).
T2 construct: Human FXIa (Enzyme Research Laboratories) was incubated; purchased Enzyme Research Laboratories
Briefly: FXIa inhibitory activity in vitro (fluorogenic substrate Z-Gly-Pro-Arg-AFC), selectivity. Type of assay: biochemical. The conditions noted are these: 25° C. The protocol: Determination of the % Inhibition for FXIa
Human FXIa (Enzyme Research Laboratories) was incubated at 25° C. with the fluorogenic substrate Z-Gly-Pro-Arg-AFC and various concentrations of the test compound. Residual enzyme activity (initial rate of reaction) was determined by measuring the change in fluorescence at 410 nm and the IC50 value for the test compound was determined.

[3] abbreviates: numeric bound printed instead of category.

For 36 compounds, IC50 results are on record in patent US20220298138A1, “ENZYME INHIBITORS” (KALVISTA PHARMACEUTICALS LIMITED, priority 2019, published 2022).

As a reminder, the IC50 is the concentration that inhibits the measured activity by half.

T2 sequence (P03951 388-625 limits assumed): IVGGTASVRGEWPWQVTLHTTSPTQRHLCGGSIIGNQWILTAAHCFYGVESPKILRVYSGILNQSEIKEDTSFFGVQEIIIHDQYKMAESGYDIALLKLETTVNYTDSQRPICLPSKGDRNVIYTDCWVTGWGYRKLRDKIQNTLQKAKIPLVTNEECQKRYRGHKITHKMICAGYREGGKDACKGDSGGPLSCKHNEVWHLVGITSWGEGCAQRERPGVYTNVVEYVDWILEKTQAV
T2 sequence (P03951 19-387 partner limits assumed): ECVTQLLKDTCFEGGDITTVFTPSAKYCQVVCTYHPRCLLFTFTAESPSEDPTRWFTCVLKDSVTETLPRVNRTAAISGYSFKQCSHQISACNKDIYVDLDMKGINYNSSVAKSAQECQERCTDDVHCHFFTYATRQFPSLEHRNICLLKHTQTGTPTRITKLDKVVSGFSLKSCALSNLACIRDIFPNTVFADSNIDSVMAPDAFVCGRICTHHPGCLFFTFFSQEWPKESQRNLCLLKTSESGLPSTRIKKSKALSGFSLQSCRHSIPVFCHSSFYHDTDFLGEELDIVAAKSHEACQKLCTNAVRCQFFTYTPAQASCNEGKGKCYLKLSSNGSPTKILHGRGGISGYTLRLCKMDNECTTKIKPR

For `Nc1nccc2cc(CNC(=O)C3(NC(=O)[C@H](N)CCc4ccccc4)CCOCC3)ccc12` [Example 54.03], the IC50 is 3 to 10 µM in assay [1] and greater than 40 µM in assay [2] (category scale).

Take `CC1CCCC(C)N1CC(=O)N[C@@H](Cc1ccc(F)c(F)c1)C(=O)NCc1ccc2c(N)nccc2c1` (stereo partly drawn) [Example 3.01]: the IC50 was 0.1 to 0.279 µM in assay [1] and greater than 40 µM in assay [2] (category scale).

For `CC(C)n1cc(C(=O)N[C@@H](Cc2ccc(F)c(F)c2)C(=O)NCc2ccc3c(N)nccc3c2)ccc1=O` [Example 0.94], the IC50 in assay [1] was 1 to 3 µM; in assay [2] (category scale), greater than 40 µM.

On to `C[C@H](NC(=O)[C@@H](N)CCc1ccccn1)C(=O)NCc1ccc2c(N)nccc2c1` [Example 6.12], for which the figures for the IC50 in assay [1] and in assay [2] (category scale) were 10 to 40 µM and greater than 40 µM, respectively.

Consider `C[C@H](NC(=O)[C@H](N)CCCc1ccccc1)C(=O)NCc1ccc2c(N)nccc2c1` [Example 6.18], for which the IC50 in assay [1] and in assay [2] (category scale) was 3 to 10 µM each time.

On to `C[C@H](NC(=O)[C@H](N)COc1ccccc1)C(=O)NCc1ccc2c(N)nccc2c1` [Example 6.17], for which the IC50 in assay [1] and in assay [2] (category scale) was 10 to 40 µM each time.

For `N[C@H](CCCCN1CCC(F)(F)C1)C(=O)N1CC[C@H]1C(=O)NCc1cnc2[nH]cc(Cl)c2c1` [Example 10.04], the IC50 in assay [1] was 0.28 to 1 µM; in assay [2] (category scale) it was greater than 40 µM.

As for `CC(C)N[C@H](CCCCN1CCCCC1)C(=O)N[C@@H](Cc1csc2ccccc12)C(=O)NCc1ccc2c(N)nccc2c1` [Example 12.07], the IC50 in assay [1] was less than 0.03 µM; in assay [2] (category scale) it was 1 to 3 µM.

For `N[C@H](CCCCO)C(=O)N1CC[C@H]1C(=O)NCc1ccc2[nH]cc(Cl)c2c1` [Example 10.06], the IC50 in assay [1] is 10 to 40 µM; in assay [2] (category scale), greater than 40 µM.

Regarding `CC(C)N[C@H](CCc1ccccc1)C(=O)N1CC[C@H]1C(=O)NCc1ccc2c(N)nccc2c1` [Example 17.09, (2S)—N-[(1-aminoisoquinolin-6-yl)methyl]-1-[(2R)-2-(isopropylamino)-4-phenylbutanoyl]azetidine-2-carboxamide], the IC50 was 0.1 to 0.279 µM in assay [1] and 10 to 40 µM in assay [2] (category scale).

In the case of `N[C@H](CCCCN1CCCC(F)(F)C1)C(=O)N1CC[C@H]1C(=O)NCc1ccc2[nH]cc(Cl)c2c1` [Example 10.15], the IC50 in assay [1] is 3 to 10 µM; in assay [2] (category scale) it was greater than 40 µM.

For the compound `Nc1nccc2cc(CNC(=O)[C@@H]3CCN3C(=O)[C@H](N)CCc3ccccc3)ccc12` [Example 17.05], the IC50 lay within 0.28 to 1 µM in assay [1] and 10 to 40 µM in assay [2] (category scale).

As for `C[C@H](NC(=O)[C@H](N)CCc1ccccc1)C(=O)NCc1cnc2[nH]cc(Cl)c2c1` [Example 9.01], the values for the IC50 in assay [1] and in assay [2] (category scale) were 0.28 to 1 µM and 10 to 40 µM, respectively.

Take `N=C(N)c1ccc(CNC(=O)[C@H](Cc2cccc3ccccc23)NC(=O)c2ccccn2)cc1` [Example 71.02]: the IC50 in assay [1] was 1 to 3 µM; in assay [2] (setting [3]), greater than 10 µM.

As for `CC(C)N[C@H](CCCCN1CCCCC1)C(=O)N[C@@H](Cc1ccc(-c2ccccc2)cc1)C(=O)NCc1ccc2c(N)nccc2c1` [Example 12.10], the IC50 is 3 to 10 µM in assay [1] and greater than 40 µM in assay [2] (category scale).

For `CC(C)N[C@H](CCCCN1CCCCC1)C(=O)N[C@@H](Cc1cccc2ccccc12)C(=O)NCc1ccc2c(N)nccc2c1` [Example 12.06, (2R)—N-[(1S)-1-{[(1-Aminoisoquinolin-6-yl)methyl]carbamoyl}-2-(naphthalen-1-yl)ethyl]-2-(isopropylamino)-6-(piperidin-1-yl)hexanamide], the IC50 in assay [1] is less than 0.03 µM; in assay [2] (category scale), 3 to 10 µM.

`CC(=O)N1C[C@H](c2ccccc2)C[C@H]1C(=O)NCc1ccc2c(N)nccc2c1` [Example 43.01]: the IC50 was 3 to 10 µM in assay [1] and greater than 40 µM in assay [2] (category scale).

As for `Nc1nccc2cc(CNC(=O)[C@@H]3C[C@@H](c4ccccc4)CN3CC3CCNCC3)ccc12` [Example 43.05], the figures for the IC50 in assay [1] and in assay [2] (category scale) were 10 to 40 µM and greater than 40 µM, respectively.

Consider `C[C@H](NC(=O)[C@@H](CCc1ccccc1)N1CCCC1)C(=O)NCc1ccc2c(N)nccc2c1` [Example 6.23], for which the values for the IC50 in assay [1] and in assay [2] (category scale) were 0.1 to 0.279 µM and greater than 40 µM, respectively.

With `CC(C)N[C@H](CCc1ccccc1)C(=O)N1CCC[C@H]1C(=O)NCc1cnc2[nH]cc(Cl)c2c1` [Example 27.01], the IC50 in assay [1] was 0.28 to 1 µM; in assay [2] (category scale), greater than 40 µM.

For the compound `C[C@@H]1CCC[C@H](C)N1CC(=O)N1CCC(C(=O)NCc2ccc3c(N)nccc3c2)C1` (stereo partly drawn) [Example 32.10], the results for the IC50 in assay [1] and in assay [2] (category scale) were 10 to 40 µM and greater than 40 µM, respectively.

Take `CN[C@H](CCc1ccccc1)C(=O)N1CC[C@H]1C(=O)NCc1ccc2c(N)nccc2c1` [Example 17.08]: the IC50 in assay [1] is 0.28 to 1 µM; in assay [2] (category scale), greater than 40 µM.

Take `CC(C)(NS(=O)(=O)c1ccc2ccccc2c1)C(=O)NCc1ccc2c(N)nccc2c1` [Example 18.105]: the IC50 in assay [1] and in assay [2] (category scale) was 10 to 40 µM throughout.

Turning to `C[C@H](NC(=O)[C@H](N)CCc1ccccc1)C(=O)N[C@@H]1CCc2c1ccnc2N` [Example 9.02], the results for the IC50 in assay [1] and in assay [2] (category scale) were 0.28 to 1 µM and greater than 40 µM, respectively.

In the case of `C[C@H](NC(=O)[C@H](N)CCc1ccccc1)C(=O)NCc1ccc2[nH]cc(Cl)c2c1` [Example 9.04], the results for the IC50 in assay [1] and in assay [2] (category scale) were 3 to 10 µM and greater than 40 µM, respectively.

`CC(C)N[C@H](CCCCN1Cc2ccccc2C1)C(=O)N1CC[C@H]1C(=O)NCc1ccc2[nH]cc(Cl)c2c1` [Example 10.11]: the IC50 in assay [1] is 0.28 to 1 µM; in assay [2] (category scale), 10 to 40 µM.

As to `C[C@H](NC(=O)[C@H]1Cc2ccccc2CN1)C(=O)NCc1ccc2c(N)nccc2c1` [Example 45.04], the IC50 in assay [1] was in the range of 10 to 40 µM; in assay [2] (category scale) it was 3 to 10 µM.

Regarding `CN[C@H](CCc1ccccc1)C(=O)N[C@@H](C)C(=O)NCc1ccc2c(N)nccc2c1` [Example 6.10], the IC50 in assay [1] fell in the range of 0.1 to 0.279 µM; in assay [2] (category scale), 10 to 40 µM.

For `CC(C)N[C@H](CCCN1CCCCC1)C(=O)N1CC[C@H]1C(=O)NCc1ccc2c(N)nccc2c1` [Example 17.11], the IC50 was 0.28 to 1 µM in assay [1] and greater than 40 µM in assay [2] (category scale).

Turning to `CC(C)N[C@H](CCc1ccccc1)C(=O)N[C@@H](C)C(=O)NCc1cnc2[nH]cc(Cl)c2c1` [Example 9.03], the figures for the IC50 in assay [1] and in assay [2] (category scale) were 1 to 3 µM and greater than 40 µM, respectively.

Turning to `N[C@H](CCc1ccccc1)C(=O)N1CCC1C(=O)NCc1cnc2[nH]cc(Cl)c2c1` (stereo partly drawn) [Example 10.02], the results for the concentration for half-maximal inhibition (IC50) in assay [1] and in assay [2] (category scale) were 0.28 to 1 µM and greater than 40 µM, respectively.

For `C[C@@H]1CCC[C@H](C)N1CC(=O)N[C@H]1CCC[C@@H]1C(=O)NCc1ccc2c(N)nccc2c1` [Example 32.15], the IC50 in assay [1] is 10 to 40 µM; in assay [2] (category scale) it was greater than 40 µM.

For the compound `N=C(N)c1ccc(CNC(=O)[C@H](Cc2cccc3ccccc23)NC(=O)[C@H]2CCCN2)cc1` [Example 71.01], the figures for the IC50 in assay [1] and in assay [2] (setting [3]) were 0.1 to 0.279 µM and greater than 10 µM, respectively.

Consider `CCC(C)[C@@H](N)C(=O)N[C@H](CC1CCCC2CCCCC21)C(=O)NCc1ccc(C(=N)N)s1` (stereo partly drawn) [Example 71.03], for which the IC50 in assay [1] and in assay [2] (category scale) was 1 to 3 µM each time.

As for `CC(C)(O)C(=O)N1C[C@H](c2ccccc2)C[C@H]1C(=O)NCc1ccc2c(N)nccc2c1` [Example 43.04], the IC50 in assay [1] and in assay [2] (category scale) was 10 to 40 µM throughout.

For `Nc1nccc2cc(CNC(=O)C3(NC(=O)[C@H](N)CCc4ccccc4)CC3)ccc12` [Example 54.01], the IC50 in assay [1] is 0.28 to 1 µM; in assay [2] (category scale), greater than 40 µM.
